Reference: PubChem BioAssay AID330 (DTP/NCI, 2004)
Where “and” joins values, the source holds several entries; their conditions need not be identical. Equal values may be shown once. Inconclusive results and toxic doses are left out. The calls were made as follows: active = survival T/C of 150% or more; inactive = T/C below 125% in these data.

Tested on: P388 leukemia ip, CD2F1 mice, survival T/C
Test: NCI In Vivo Anticancer Drug Screen. Data for tumor model P388 Leukemia (intraperitoneal) in CD2F1 (CDF1) mice
Conditions: endpoint: median survival time, higher = longer survival
In short: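 Mice carrying the transplanted tumor received test compound or vehicle. Survival was recorded in each group, and the value is the treated-group measurement divided by that of the vehicle-treated control group.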

[1] = dose: 50.0 mg/kg/injection, schedule: Q01DX009 (ip), vehicle: Klucel (hydroxypropylcellulose) (HPC)
[2] = dose: 100.0 mg/kg/injection, schedule: Q01DX009 (ip), vehicle: Klucel (hydroxypropylcellulose) (HPC)
[3] = dose: 50.0 mg/kg/injection, schedule: Q01DX009 (ip), vehicle: saline
[4] = dose: 100.0 mg/kg/injection, schedule: Q01DX009 (ip), vehicle: saline
[5] = dose: 200.0 mg/kg/injection, schedule: Q01DX009 (ip), vehicle: saline
[6] = dose: 50.0 mg/kg/injection, schedule: Q01DX005 (ip), vehicle: Klucel (hydroxypropylcellulose) (HPC)
[7] = dose: 100.0 mg/kg/injection, schedule: Q01DX005 (ip), vehicle: Klucel (hydroxypropylcellulose) (HPC)
[8] = dose: 200.0 mg/kg/injection, schedule: Q01DX005 (ip), vehicle: Klucel (hydroxypropylcellulose) (HPC)
[9] = dose: 7.5 mg/kg/injection, schedule: Q01DX005 (ip), vehicle: saline with Tween-80
[10] = dose: 15.0 mg/kg/injection, schedule: Q01DX005 (ip), vehicle: saline with Tween-80
[11] = dose: 30.0 mg/kg/injection, schedule: Q01DX005 (ip), vehicle: saline with Tween-80
[12] = dose: 25.0 mg/kg/injection, schedule: Q01DX005 (ip), vehicle: Klucel (hydroxypropylcellulose) (HPC)

Measured: T/C

Cn1c(=O)c2c(ncn2C2C(=O)NNC2=O)n(C)c1=O
inactive: dose: 100.0 mg/kg/injection, schedule: Q01DX001 (ip), vehicle: Klucel (hydroxypropylcellulose) (HPC) 100 % of control | dose: 200.0 mg/kg/injection, schedule: Q01DX001 (ip), vehicle: Klucel (hydroxypropylcellulose) (HPC) 93 % of control | dose: 400.0 mg/kg/injection, schedule: Q01DX001 (ip), vehicle: Klucel (hydroxypropylcellulose) (HPC) 94 % of control

S=C(Nc1ccccc1)Nc1ncccn1
inactive: [1] 111 % of control | [2] 99 % of control

COc1ccc(/C(C)=N/OC(=O)c2sc3ccccc3c2Cl)cc1CN1CCOCC1
inactive: [3] 93 % of control | [4] 97 % of control | [5] 100 % of control

CC(C)(C)C1C/C(=C2\COC(=O)C2=O)NN1c1ccccc1 (configuration not stated)
inactive: [3] 92 % of control | [4] 91 % of control | [5] 91 % of control

O=C(CCS(=O)(=O)CCC(=O)c1ccco1)c1ccco1
inactive: dose: 100.0 mg/kg/injection, schedule: Q04DX003 (ip), vehicle: saline 94 % of control | dose: 200.0 mg/kg/injection, schedule: Q04DX003 (ip), vehicle: saline 94 % of control | dose: 400.0 mg/kg/injection, schedule: Q04DX003 (ip), vehicle: saline 90 % of control

C[C@@]12O[C@]1(C)[C@@H]1[C@H]3O[C@H]3[C@@H]2N(C(=O)OCC(Cl)(Cl)Cl)N1C(=O)OCC(Cl)(Cl)Cl
inactive: [6] 100 % of control | [7] 105 % of control | [8] 100 % of control

Cc1cc(C)nc(C2=C(O)c3ccccc3C2=O)c1
inactive: dose: 60.0 mg/kg/injection, schedule: Q01DX005 (ip), vehicle: Klucel (hydroxypropylcellulose) (HPC) 106 % of control | dose: 120.0 mg/kg/injection, schedule: Q01DX005 (ip), vehicle: Klucel (hydroxypropylcellulose) (HPC) 99 % of control | dose: 240.0 mg/kg/injection, schedule: Q01DX005 (ip), vehicle: Klucel (hydroxypropylcellulose) (HPC) 87 % of control and 96 % of control

CCOC(=O)C[n+]1cccc(S(=O)(=O)NC)c1
inactive: dose: 12.5 mg/kg/injection, schedule: Q01DX009 (ip), vehicle: saline 94 % of control | dose: 25.0 mg/kg/injection, schedule: Q01DX009 (ip), vehicle: saline 94 % of control | [3] 93 % of control

CCOc1c(Br)cc(/C=C/[N+](=O)[O-])cc1OC
inactive: dose: 3.75 mg/kg/injection, schedule: Q01DX005 (ip), vehicle: saline with Tween-80 103 % of control | [9] 112 % of control and 116 % of control | [10] 109 % of control and 120 % of control | [11] 120 % of control

CC(CNC(Cc1ccccc1)c1ccccc1)NC(Cc1ccccc1)c1ccccc1 (configuration not stated)
inactive: dose: 12.5 mg/kg/injection, schedule: Q01DX005 (ip), vehicle: Klucel (hydroxypropylcellulose) (HPC) 110 % of control | [12] 102 % of control | [6] 105 % of control and 110 % of control

c1ccc(C2Oc3ccccc3-c3nc4ccccc4cc32)cc1 (configuration not stated)
inactive: dose: 50.0 mg/kg/injection, schedule: Q01DX005 (ip), vehicle: saline with Tween-80 106 % of control | dose: 100.0 mg/kg/injection, schedule: Q01DX005 (ip), vehicle: saline with Tween-80 111 % of control | dose: 200.0 mg/kg/injection, schedule: Q01DX005 (ip), vehicle: saline with Tween-80 100 % of control

Clc1cc2c(c(CSc3nc4ccccc4n4cccc34)c1)OCOC2
inactive: [1] 96 % of control | [2] 96 % of control | dose: 200.0 mg/kg/injection, schedule: Q01DX009 (ip), vehicle: Klucel (hydroxypropylcellulose) (HPC) 98 % of control

O=C(NN1C(=O)C=C(O)/C1=C\c1ccccc1)c1ccccc1
inactive: [12] 99 % of control and 104 % of control | [6] 101 % of control and 104 % of control and 111 % of control | [7] 103 % of control and 105 % of control (2×) | [8] 100 % of control and 105 % of control and 121 % of control

CC(C)S.[Cu+2]
inactive: dose: 6.25 mg/kg/injection, schedule: Q01DX009 (ip), vehicle: saline with Tween-80 114 % of control | dose: 12.5 mg/kg/injection, schedule: Q01DX009 (ip), vehicle: saline with Tween-80 97 % of control | dose: 25.0 mg/kg/injection, schedule: Q01DX009 (ip), vehicle: saline with Tween-80 109 % of control

CN1CCCOC(c2ccccc2)c2ccsc2CC1 (configuration not stated)
inactive: [9] 101 % of control | [10] 102 % of control | [11] 102 % of control | dose: 60.0 mg/kg/injection, schedule: Q01DX005 (ip), vehicle: saline with Tween-80 101 % of control and 93 % of control
